Results on 2 compounds are retold here after patent publication US10167306B2, “Crystalline form of 1-(beta-D-glucopyranosyl)-4-methyl-3-[5-(4-fluorophenyl)-2-thienylmethyl]benzene and preparation method thereof” (SHANGHAI DESANO PHARMACEUTICALS INVESTMENT CO., LTD, priority 2015, dated 2019).

Data set [1] in a line: Suspension of crystalline form W in water, XRPD comparison. It is filed as physicochemical. The settings on record: suspended in water of 20° C. and 60° C. for 4 days; form W prepared in Example 1; FIG. 5. The method, then: (§1) X-ray powder diffraction instrument: Brucker D8 advance X-ray powder diffraction; radiation source: copper target (α=1.540600 Å), scanning at room temperature; voltage: 40 kv; Current: 40 mA; starting 2θ: 2.000°, scanning range: 2.0000-50.000°; step size: 0.020°; measuring time: 12.6 seconds/step.
Crystalline forms W of canagliflozin prepared in Examples 1-7 were suspended in water of 20° C. and 60° C. for 4 days.

Data set [2] can be described thus: Crystalline form competition experiment: 1:1 mixture of form W and hemihydrate form suspended in water, XRPD comparison. It is filed as physicochemical. The method, then: as §1
Crystalline forms W of canagliflozin prepared in Examples 1-7 were mixed with the hemihydrate crystalline of canagliflozin (the product after crystallization) prepared in Example 1 in WO2008069327 in a ratio of 1:1, and the mixtures were suspended in water of 20° C. and 60° C. for 4 days, respectively.

Take `Cc1ccc([C@@H]2O[C@H](CO)[C@@H](O)[C@H](O)[C@H]2O)cc1Cc1ccc(-c2ccc(F)cc2)s1` [crystalline form W, 1-(β-D-glucopyranosyl)-4-methyl-3-[5-(4-fluorophenyl)-2-thienylmethyl]benzene]: the “stability of crystalline form (XRPD pattern) after suspending in water” value in data set [1] is “excellent stability”. In data set [2] (versus hemihydrate crystalline form, 1:1 mixture in water of 20° C. and 60° C. for 4 days), the “relative stability in the crystalline form competition experiments” value is on record as “better stability”.
As to `Cc1ccc([C@@H]2O[C@H](CO)[C@@H](O)[C@H](O)[C@H]2O)cc1Cc1ccc(-c2ccc(F)cc2)s1` [hemihydrate crystalline form, 1-(β-D-glucopyranosyl)-4-methyl-3-[5-(4-fluorophenyl)-2-thienylmethyl]benzene, reference compound], the “crystalline form transformation in the 1:1 mixture (XRPD pattern)” value in data set [2] (1:1 mixture of form W (Example 1) and hemihydrate form of WO2008069327, suspended in water of 20° C. and 60° C. for 4 days, FIG. 6) is listed as “completely transformed into crystalline form W”.
